Laboratory results published in US8859587B2, “(2E)-3-phenyl-N-[2,2,2-Trifluoro-1-[[8-quinolineamino)thiomethyl]amino]ethyl]-2-acrylamide and pharmaceutical uses thereof” (Chinese PLA General Hospital, priority 2010, dated 2014).

Columns and labels:
[1] = system: cardiac muscle cells under anoxia; assay: Cardiomyocyte apoptosis induced by anoxia, high connotation screening (HCS Reader); format: cell-based, Wistar rats; conditions: for Filament strength (actin filament) / Nucleus area / Nucleus strength / Short/long axis ratio of filament / cell count increase in comparison with the anoxia group / light flux / Cell count / Transmembrane potential (mitochondrial): anoxia 16 h; for Cell count / Transmembrane potential (mitochondrial): relative to control group = 1
Method: neonate Wistar rats, rat age: within 24 h, male and female
cardiac muscle cells were separated and cultured by referring to the method of differential adhesion, Wistar neonate […] newborn within 24 h were used, sterilized at skin of ventrum with iodine tincture and ethanol, subjected to thoracotomy using scissors at subxiphoid median line with a deviation to left, heart was taken out after slant thoracotomy and placed in PBS precooled with ice; the heart was softly blown and beaten with 0.01M PBS to remove blood cells and other tissues, then cut into pieces with 0.5 mm^3 size, washed with 0.01M PBS repeatedly for 2-3 times; the pieces were placed in conical flask, added with 4 ml of 0.125% pancretin, 1 ml of 0.1% collagenase II (final concentrations separately being 0.1% and 0.02%), shaken in 37° C. water bath for 10 min, the supernatant was discarded; then 4 ml of 0.125% pancretin and 1 ml of 0.1% collagenase II again, shaken in 37° C. water bath for digestion for 10 min, the supernatant was sucked and transferred to a centrifuge tube, and the supernatant was added with DMEM containing 10% FBS to terminate digestion; the step of shaking and digestion in water bath was repeated for 3-4 times, until the tissue pieces were completely digested; the collected cell suspension was centrifuged under 1000 rpm for 10 min, the supernatant was removed, then a culture medium was added for resuspension; the resuspended cells were inoculated in a cell culture flask, placed in CO2 incubator at 37° C. for incubation for 1.5 h, then the culture medium was sucked out, countered under microscope, then DMEM culture medium containing 10% FBS was used to adjust cell density, inoculated in an amount of 1×10^4 to a 96-well plate, placed in 5% CO2 incubator at 37° C. for 24 h, then half medium was replaced, a culture medium containing 0.1% Brdu was supplementally added; then the medium was replaced once per 48 h, and primary cardiac muscle cells were obtained after 4 days of cultivation.
1. The separated cardiac muscle cells were inoculated to a 96-wells plate, 10^4 cells per well, and the volume of each well was 100 μl (marginal wells were filled with sterile PBS). After being cultivated in 5% CO2 and 37° C. incubator for 4 d, Formula I was separated added at different concentrations (5 μM, 10 μM, 20 μM) and treated for 30 min, then placed in a sealed 37° C. anoxia incubator (O2/CO2, 5:95) and continuously incubated for 16 h, and at the same time, anoxia control wells and the normal control wells were set and cultivated in 5% CO2, 37° C. incubator for 16 h.
2. It was 30 min before the anoxia incubation was finished, each well was supplemented with 50 μl of culture medium and 50 μl of Mitotracker/Hoechst solution, and the cells were continuously incubated at 37° C. for 30 min.
3. 100 μl of the fixing solution was preheated to 37° C. and separately added to each culture well, without sucking out culture medium, and incubation was performed under ventilation at room temperature for 10 min.
4. The solution of each well was sucked out (the plate could be struck), washed with 1× Wash Buffer (100 uL/well) once. Carefulness was kept during operation and washing procedure, and slow sucking and adding liquid to maintain cell adhesion and integrity.
5. Wash Buffer was sucked out, 1× penetrating buffer solution (100 uL/well) was added, incubated at room temperature for 15 min.
6. The penetrating buffer solution in each well was sucked out, washed once with 100 μL/well of 1× Wash Buffer.
7. The Wash Buffer in each well was sucked out (the plate could be struck), each well was added with 50 μl of Alexa Fluor 488 Phalloidin Solution, incubated at room temperature in dark for 30 min.
8. The Alexa Fluor 488 Phalloidin solution in each well was sucked out, washed with 1× Wash Buffer (100 μl/well) twice, and added with 1× Wash Buffer (100 μl/well).
9. The edge of plate was covered with a sealing membrane (for prevention of drying), and assayed with HCS Reader. […]

[2] = system: cardiac muscle cells induced by Tunicamycin (TM); assay: Survival rate of TM-induced cardiac muscle cells detected by MTT method; format: cell-based, Wistar rats; conditions: for Cell survival rate (%): MTT
Method: The separation and culture of cardiomyocyte refer to the method of differential adhesion separation (Kreider, A. Messing, H. Doan, S. U. Kim, R. P. Lisak and D. E. Pleasure, Enrichment of Schwann cell cultures from neonatal rat sciatic nerve by differential adhesion, Brain Res 2 (1981), pp. 433-444.), Wistar neonate rats newly born within 24 h were used to obtain primary cardiac muscle cells.
The separated cardiac muscle cells were inoculated in an amount of 10^4 cells per well to a 96-well plate, and the volume of each well was 100 μl (marginal wells were filled with sterile PBS). […] After continuous inoculation, each well was added with 20 μl of MTT solution (5 mg/ml, formulated with PBS (pH=7.4), i.e., 0.5% MTT), and the cultivation was continued for 4 h. After the end of cultivation, culture medium in wells was carefully sucked out. Each well was added with 150 μl of DMSO, shaken at a low speed in a shaking table for 10 min, so that the crystal was sufficiently dissolved. The optical density (OD) value of each well was measured at wavelength of 490 nm by enzyme-linked immunoassay instrument, and each well was repeatedly measured for 3 times and the results were recorded. The cell survival rate at each time point was calculated according to: […], and a cell growth curve was drawn by using time as abscissa and optical density as ordinate.

O=C(/C=C/c1ccccc1)NC(NC(=S)Nc1cccc2cccnc12)C(Cl)(Cl)Cl (stereo not drawn) [Compound of Formula I, (2E)-3-phenyl-N-[2,2,2-trichloro-1-[[(8-quinolylamino)thiomethyl]amino]ethyl]-2-acrylamide]
Filament strength (actin filament) ([1]; 5 μM): 498.03 ± 76.67 | Nucleus area ([1]; 5 μM): 109.90 ± 3.97 | Nucleus strength ([1]; 5 μM): 124.90 ± 2.25 | Short/long axis ratio of filament ([1]; 5 μM): 0.75 ± 0.02 | cell count increase in comparison with the anoxia group ([1]; 5 μM): 17.06% | light flux ([1]; 5 μM): 1201.92 ± 29.95 | Cell count ([1]; 5 μM): 88.57% ± 7.64% | Transmembrane potential (mitochondrial) ([1]; 5 μM): 96.69% ± 5.06% | Filament strength (actin filament) ([1]; 10 μM): 503.64 ± 49.23 | Nucleus area ([1]; 10 μM): 107.43 ± 7.77 | Nucleus strength ([1]; 10 μM): 123.21 ± 2.71 | Short/long axis ratio of filament ([1]; 10 μM): 0.74 ± 0.01 | cell count increase in comparison with the anoxia group ([1]; 10 μM): 26.52% | light flux ([1]; 10 μM): 1166.12 ± 91.06 | Cell count ([1]; 10 μM): 98.03% ± 16.24 | Transmembrane potential (mitochondrial) ([1]; 10 μM): 97.19% ± 2.82^ | Filament strength (actin filament) ([1]; 20 μM): 471.83 ± 69.38 | Nucleus area ([1]; 20 μM): 111.90 ± 10.76 | Nucleus strength ([1]; 20 μM): 121.40 ± 2.24 | Short/long axis ratio of filament ([1]; 20 μM): 0.74 ± 0.02 | cell count increase in comparison with the anoxia group ([1]; 20 μM): 30.22% | light flux ([1]; 20 μM): 1214.09 ± 107.59 | Cell count ([1]; 20 μM): 101.73% ± 22.42% | Transmembrane potential (mitochondrial) ([1]; 20 μM): 99.40% ± 2.80% | effect on indexes of cardiac muscle cells under anoxia (nucleus area, nucleus strength, light flux, actin filament, transmembrane potential, cell count) ([1]; highly anoxia condition): significantly improve the above indexes | Cell survival rate (%) ([2]; 5 μM pretreatment 30 min + TM 5 μg/ml): 82.6106 ± 8.1018 % | Cell survival rate (%) ([2]; 10 μM pretreatment 30 min + TM 5 μg/ml): 83.8371 ± 8.2608 % | Cell survival rate (%) ([2]; 20 μM pretreatment 30 min + TM 5 μg/ml): 84.6255 ± 5.5519 % | Cell survival rate (%) ([2]; 40 μM + TM 5 μg/ml): 85.4139 ± 5.6916 % | cell survival rate in comparison with the TM group ([2]; pretreatment in various concentrations, p<0.05): significant increase of cell survival rate
